Measurements from patent US20240408117A1, “COMPOSITIONS AND METHODS FOR TREATING HEMIPLEGIC MIGRAINE” (Schedule 1 Therapeutics, Inc., priority 2023, published 2024).
In brackets after ≈: the same amount, converted by molar mass.

Columns and labels:
[1] = Solubility of cannabidiol in solvents, oils and buffers at 25° C.; format: physicochemical
OEL of cannabidiol = conditions: estimated
[2] = Accelerated and long-term stability studies of cannabidiol (ICH Q1A (R2)); format: physicochemical; conditions: batches stored per ICH Q1A (R2)
Description: Manufacturing of all lots of cannabidiol was conducted in a manner consistent with Good Manufacturing Practices and ICH Q7 regulations. Consistent with these principles, and in direct regard to production of cannabidiol, the manufacturer conducted accelerated stability studies utilizing batches of cannabidiol manufactured at full scale. […]. In addition, the manufacturer has batches of cannabidiol on a long-term stability study. […] For these batches, the data and results from these stability studies are in compliance with documentation procedures.

[3] = Solubility of dronabinol at 25° C.; format: physicochemical; conditions: for solubility: organic solvent or mixture
Description: Solubility at 25° C.: Dronabinol is immiscible in water.

[4] = Hygroscopicity of dronabinol by thermogravimetric analysis; format: physicochemical

C=C(C)[C@@H]1CCC(C)=C[C@H]1c1c(O)cc(CCCCC)cc1O [Cannabidiol, 2-[(1R,6R)-3-methyl-6-prop-1-en-2-ylcyclohex-2-en-1-yl]-5-pentylbenzene-1,3-diol]
solubility ([1]; Britton Robinson Buffer, aqueous buffer, BRB pH 6, 25° C.): 0.00013 mg/mL (≈ 0.000413 mM) | solubility ([1]; Britton Robinson Buffer, aqueous buffer, BRB pH 8, 25° C.): 0.00012 mg/mL (≈ 0.000382 mM) | solubility ([1]; Britton Robinson Buffer, pH 4, aqueous buffer, BRB pH4, 25° C.): 0.00011 mg/mL (≈ 0.00035 mM) | solubility ([1]; Britton Robinson buffer, aqueous buffer, BRB pH 10, 25° C.): 0.00013 mg/mL (≈ 0.000413 mM) | solubility ([1]; Britton Robinson buffer, aqueous buffer, BRB pH 11, 25° C.): 0.00041 mg/mL (≈ 0.0013 mM) | Solubility ([1]; Heptane, 25° C.): 64.6 mg/mL (≈ 205 mM) | Solubility ([1]; Isooctane, 25° C.): 43.9 mg/mL (≈ 140 mM) | Solubility ([1]; Water, 25° C.): <0.1 mg/mL | solubility ([1]; Water, 25° C.): < 0.1 mg/mL | solubility ([1]; aqueous buffer, BRB (Britton Robinson Buffer) pH 2, 25° C.): 0.00011 mg/mL (≈ 0.00035 mM) | solubility ([1]; aqueous buffer, Britton Robinson Buffers): < 0.1 mg/mL | solubility ([1]; aqueous buffer, Phosphate Buffer pH 6.5 without SLS, 25° C.): 0.00015 mg/mL (≈ 0.000477 mM) | solubility ([1]; aqueous with cosolvent or surfactant or cyclodextrin, Cremophor EL, 25° C.): > 100 mg/mL | solubility ([1]; aqueous with cosolvent or surfactant or cyclodextrin, Tween 80, 25° C.): > 100 mg/mL | Solubility ([1]; n-Decane, 25° C.): 36.8 mg/mL (≈ 117 mM) | solubility ([1]; oil or lipid, Dodecane Oil, 25° C.): 28 mg/mL (≈ 89 mM) | solubility ([1]; oil or lipid, Mineral Oil, 25° C.): 16 mg/mL (≈ 50.9 mM) | solubility ([1]; oil or lipid, Sesame Oil, 25° C.): 216 mg/mL (≈ 687 mM) | solubility ([1]; oil or lipid, Sunflower Seed Oil, 25° C.): > 100 mg/mL | solubility ([1]; organic solvent or mixture, 1,2-Dimethyloxyethane, 25° C.): > 100 mg/mL | solubility ([1]; organic solvent or mixture, 1,4-dioxane, 25° C.): > 100 mg/mL | solubility ([1]; organic solvent or mixture, 1-Propanol, 25° C.): > 100 mg/mL | solubility ([1]; organic solvent or mixture, 2-Propanol (IPA), 25° C.): > 100 mg/mL | solubility ([1]; organic solvent or mixture, 2-butanone, 25° C.): > 100 mg/mL | solubility ([1]; organic solvent or mixture, 2-methyl tetrahydrofuran (2-MeTHF), 25° C.): > 100 mg/mL | solubility ([1]; organic solvent or mixture, 2-methyl tetrahydrofuran saturated with water, 25° C.): > 100 mg/mL | solubility ([1]; organic solvent or mixture, Acetone, 25° C.): > 100 mg/mL | solubility ([1]; organic solvent or mixture, Acetonitrile (ACN), 25° C.): > 100 mg/mL | solubility ([1]; organic solvent or mixture, Anisole, 25° C.): > 100 mg/mL | solubility ([1]; organic solvent or mixture, Chloroform, 25° C.): > 100 mg/mL | solubility ([1]; organic solvent or mixture, Cumene, 25° C.): > 100 mg/mL | solubility ([1]; organic solvent or mixture, Cyclohexane, 25° C.): > 100 mg/mL | solubility ([1]; organic solvent or mixture, DMSO, 25° C.): > 100 mg/mL | solubility ([1]; organic solvent or mixture, Dichloromethane, 25° C.): > 100 mg/mL | solubility ([1]; organic solvent or mixture, Diethyl Ether, 25° C.): > 100 mg/mL | solubility ([1]; organic solvent or mixture, Ethanol (EtOH), 25° C.): > 100 mg/mL | solubility ([1]; organic solvent or mixture, Ethyl Acetate (EtOAc), 25° C.): > 100 mg/mL | solubility ([1]; organic solvent or mixture, Ethyl Formate, 25° C.): > 100 mg/mL | solubility ([1]; organic solvent or mixture, Isobutanol, 25° C.): > 100 mg/mL | solubility ([1]; organic solvent or mixture, Isopropyl Acetate (IPAc), 25° C.): > 100 mg/mL | solubility ([1]; organic solvent or mixture, Methanol (MeOH), 25° C.): > 100 mg/mL | solubility ([1]; organic solvent or mixture, N-methyl-pyrrolidone, 25° C.): > 100 mg/mL | solubility ([1]; organic solvent or mixture, Tetrahydrofuran, 25° C.): > 100 mg/mL | solubility ([1]; organic solvent or mixture, Toluene, 25° C.): > 100 mg/mL | solubility ([1]; organic solvent or mixture, all other solvents examined with the exception of heptane, n-decane and isooctane): > 100 mg/mL | solubility ([1]; organic solvent or mixture, methylcyclohexane, 25° C.): > 100 mg/mL | solubility ([1]; organic solvent or mixture, n-hexane, 25° C.): > 100 mg/mL | solubility ([1]; organic solvent or mixture, p-Xylene, 25° C.): > 100 mg/mL | solubility ([1]; organic solvent or mixture, tert-Butyl methyl ether (MTBE), 25° C.): > 100 mg/mL | solubility ([1]; phosphate buffer with 0.4% SLS, aqueous with cosolvent or surfactant or cyclodextrin, Phosphate Buffer pH 6.5 with 0.4% SLS, 25° C.): 0.00012 mg/mL (≈ 0.000382 mM) | OEL (OEL of cannabidiol): 5-20 μg/m^3 | Stability (impurity levels, assay) [2]: no trends towards increased impurity levels or decrease in assay

CCCCCc1cc(O)c2c(c1)OC(C)(C)[C@@H]1CCC(C)=C[C@@H]21 [Dronabinol, 2-(6aR,10aR) 6a,7,8,10a-tetrahydro-6,6,9-trimethyl-3-pentyl-6H-dibenzo[b,d]pyran-l-ol]
Solubility ([3]; Water): immiscible | solubility ([3]; Acetone): 100 mg/mL (≈ 318 mM) | solubility ([3]; Ethanol): 100 mg/mL (≈ 318 mM) | Hygroscopicity [4]: non-hygroscopic | weight change ([4]; approximately 140° C.): less than 0.1%
